Test results: ChEMBL document CHEMBL3425417, “Synthesis and Structure-Activity Relationship Study of 1-Phenyl-1-(quinazolin-4-yl)ethanols as Anticancer Agents” (ACS Med Chem Lett, 2015)
Activity calls are given as the source filed them. The calls are words filed in the database; no cut-off is given here.

How the values were obtained:
A549 [1] = test: Cytotoxicity against human A549 cells assessed as growth inhibition after 72 hrs by CellTiter 96 Aqueous one solution cell proliferation assay; format: functional, cell-based; conditions: for IC50: A549, 72 h
Tubulin (Homo sapiens) [2] = biological target: T1, Tubulin (Homo sapiens) (UniProt P68371+Q9H4B7+P0DPH7+P68366+Q13509+Q71U36+P04350+Q3ZCM7+P07437+P68363+Q9BQE3+Q6PEY2+Q13885+Q9BVA1+Q9BUF5); test: Inhibition of tubulin (unknown origin) polymerization at 10 uM by fluorescence assay; format: protein-complex assay
Tubulin (Homo sapiens) [3] = biological target: T1, Tubulin (Homo sapiens); test: Displacement of colchicine from tubulin (unknown origin) preincubated for 30 mins followed by colchicine addition measured after 30 mins by fluorescence assay; format: protein-complex assay
[4] = Cytotoxicity against human PC3 cells assessed as growth inhibition after 72 hrs by CellTiter 96 Aqueous one solution cell proliferation assay; format: functional, cell-based; conditions: PC-3, 72 h
MCF7 = test: Cytotoxicity against human MCF7 cells assessed as growth inhibition after 72 hrs by CellTiter 96 Aqueous one solution cell proliferation assay; format: functional, cell-based; conditions: MCF7, 72 h
A549 [5] = test: Cell cycle arrest in human A549 cells assessed as accumulation at G1 phase at 0.3 uM after 24 hrs by propidium iodide staining-based flow cytometric analysis (reference value: 75.9%); format: functional
A549 [6] = test: Cell cycle arrest in human A549 cells assessed as accumulation at G2/M phase at 1 uM after 24 hrs by propidium iodide staining-based flow cytometric analysis (reference value: 16.5%); format: functional
NCI-H460 = test: Cytotoxicity against human NCI-H460 cells assessed as growth inhibition after 72 hrs by CellTiter 96 Aqueous one solution cell proliferation assay; format: functional, cell-based; conditions: NCI-H460, 72 h
[7] = Cytotoxicity against human HCT116 cells assessed as growth inhibition after 72 hrs by CellTiter 96 Aqueous one solution cell proliferation assay; format: functional, cell-based; conditions: HCT-116, 72 h
HeLa = test: Cytotoxicity against human HeLa cells assessed as growth inhibition after 72 hrs by CellTiter 96 Aqueous one solution cell proliferation assay; format: functional, cell-based
A549 [8] = test: Cell cycle arrest in human A549 cells assessed as accumulation at G1 phase at 1 uM after 24 hrs by propidium iodide staining-based flow cytometric analysis (reference value: 75.9%); format: functional
A549 [9] = test: Cell cycle arrest in human A549 cells assessed as accumulation at G2/M phase at 3 uM after 24 hrs by propidium iodide staining-based flow cytometric analysis (reference value: 16.5%); format: functional
A549 [10] = test: Cell cycle arrest in human A549 cells assessed as accumulation at G1 phase at 3 uM after 24 hrs by propidium iodide staining-based flow cytometric analysis (reference value: 75.9%); format: functional
A549 [11] = test: Cell cycle arrest in human A549 cells assessed as accumulation at G2/M phase at 0.3 uM after 24 hrs by propidium iodide staining-based flow cytometric analysis (reference value: 16.5%); format: functional
Tubulin (Homo sapiens) [12] = biological target: T1, Tubulin (Homo sapiens); test: Inhibition of tubulin (unknown origin) polymerization at 3 to 10 uM by fluorescence assay; format: protein-complex assay
A549 [13] = test: Induction of microtubule destabilization in human A549 cells at 45 nM by DAPI-staining-based fluorescence microscopic analysis; format: cell-based
A549 [14] = test: Induction of microtubule destabilization in human A549 cells at 4 uM by DAPI-staining-based fluorescence microscopic analysis; format: cell-based
A549 [15] = test: Cell cycle arrest in human A549 cells assessed as accumulation at G2/M phase after 24 hrs by propidium iodide staining-based flow cytometric analysis; format: functional
Tubulin (Homo sapiens) [16] = biological target: T1, Tubulin (Homo sapiens); conditions: 45 uM
Description: Displacement of colchicine from tubulin (unknown origin) at 45 uM preincubated for 30 mins followed by colchicine addition measured after 30 mins by fluorescence assay

| Structure (SMILES) | IC50 (A549 [1]) | also measured |
| --- | --- | --- |
| COc1ccc(C(C)(O)c2nc(C(Cl)(Cl)Cl)nc3ccccc23)cc1 (configuration not stated) | 38 nM | – |
| COc1ccc(C(C)(O)c2nc(-c3ccccc3)nc3ccccc23)cc1 (configuration not stated) | 100 nM | inhibition (Tubulin (Homo sapiens) [2]): Active |
| COc1ccc(C(C)(O)c2nc(OC)c3ccccc3n2)cc1 (configuration not stated) | 2000 nM | – |
| COc1ccc(C(C)(O)c2nc(N3CCC(C)CC3)nc3ccccc23)cc1 (configuration not stated) | 19000 nM | – |
| CC(O)(c1ccc(C(F)(F)F)cc1)c1ncnc2ccccc12 (configuration not stated) | > 25000 nM | – |
| CC[C@]1(O)C[C@@H]2CN(CCc3c([nH]c4ccccc34)[C@@](C(=O)OC)(c3cc4c(cc3OC)N(C)[C@H]3[C@@](O)(C(=O)OC)[C@H](OC(C)=O)[C@]5(CC)C=CCN6CC[C@]43[C@@H]65)C2)C1 | – | inhibition (Tubulin (Homo sapiens) [3]): inactive |
| C=CCOc1nc(C(C)(O)c2ccc(OC)cc2)c2ccccc2n1 (configuration not stated) | 410 nM | – |
| COc1ccc(C(C)(O)c2nc(OC)nc3ccccc23)cc1 (configuration not stated) | 58 nM | – |
| CNc1ccc(C(C)(O)c2ncnc3ccccc23)cc1 (configuration not stated) | 4100 nM | – |
| CC(O)(c1ccc(F)cc1)c1ncnc2ccccc12 (configuration not stated) | > 25000 nM | – |
| COc1ccc(C(C)(O)c2nc(Oc3ccccc3)nc3ccccc23)cc1 (configuration not stated) | 3300 nM | – |
| CC(O)(c1ccccc1)c1ncnc2ccccc12 (configuration not stated) | > 25000 nM | – |
| COc1ccc(C(C)(O)c2ncnc3ccccc23)cc1 (racemic) [listing 1 of 2 here] | 270 nM | IC50 [4]: 100 nM; IC50 (MCF7): 100 nM; Activity (A549 [5]): 56.9%; Activity (A549 [6]): 68.6%; IC50 (NCI-H460): 100 nM; IC50 [7]: 100 nM; IC50 (HeLa): 100 nM; Activity (A549 [8]): 23.7%; Activity (A549 [9]): 75.9%; Activity (A549 [10]): 18.3%; Activity (A549 [11]): 35.3% |
| COc1cccc(C(C)(O)c2ncnc3ccccc23)c1 (configuration not stated) | > 25000 nM | – |
| COc1ccc(C(O)c2ncnc3ccccc23)cc1 (configuration not stated) | > 25000 nM | – |
| COc1ccc(C(C)(O)c2nc(C)nc3ccccc23)cc1 (configuration not stated) | 53 nM | – |
| COc1ccc(C(C)(O)c2ncnc3ccccc23)cc1 (stereo in doubt; (+)-1a) | – | inhibition (Tubulin (Homo sapiens) [12]): Active; growth inhibition (GI) (A549 [1]): Active |
| COc1ccc(C(O)(c2ncnc3ccccc23)C(F)(F)F)cc1 (configuration not stated) | 1100 nM | – |
| CCOc1ccc(C(C)(O)c2ncnc3ccccc23)cc1 (configuration not stated) | 300 nM | – |
| COc1ccc(C(O)(Cc2ccccc2)c2ncnc3ccccc23)cc1 (configuration not stated) | 9800 nM | – |
| CCCOc1nc(C(C)(O)c2ccc(OC)cc2)c2ccccc2n1 (configuration not stated) | 1200 nM | – |
| CC(O)(c1ccc(OC(F)(F)F)cc1)c1ncnc2ccccc12 (configuration not stated) | > 25000 nM | – |
| COc1cc2c(c(OC)c1OC)-c1ccc(OC)c(=O)cc1[C@@H](NC(C)=O)CC2 | – | Activity (A549 [13]): Active |
| COc1ccc(C(C)(O)c2nc(=O)[nH]c3ccccc23)cc1 (configuration not stated) | > 25000 nM | – |
| COc1ccc(C(C)(O)c2ncnc3ccccc23)cc1 (racemic) [listing 2 of 2 here] | – | Activity (A549 [14]): Active; inhibition (Tubulin (Homo sapiens) [3]): Dose-dependent effect; inhibition (Tubulin (Homo sapiens) [12]): Active; Activity (A549 [15]): Dose-dependent effect |

| Structure (SMILES) | IC50 (A549 [1]) | also measured |
| --- | --- | --- |
| CC(O)(c1cccc(OCc2ccccc2)c1)c1ncnc2ccccc12 (configuration not stated) | > 25000 nM | – |
| CCOc1nc(C(C)(O)c2ccc(OC)cc2)c2ccccc2n1 (configuration not stated) | 340 nM | – |
| CC(O)(c1ccc(Cl)cc1)c1ncnc2ccccc12 (configuration not stated) | > 25000 nM | – |
| COc1ccc(C(C)(O)c2nc(-c3ccccc3Cl)nc3ccccc23)cc1 (configuration not stated) | 780 nM | – |
| COc1ccc(C(C)(O)c2nc(N3CCN(c4ccc(F)cc4)CC3)nc3ccccc23)cc1 (configuration not stated) | 1900 nM | – |
| CC(O)(c1ccc2c(c1)OCO2)c1ncnc2ccccc12 (configuration not stated) | 20000 nM | – |
| COc1ccc(C(C)(O)c2nc(Cl)nc3ccccc23)cc1 (configuration not stated) | 27 nM | – |
| CCOc1ccc(C(=O)c2ncnc3ccccc23)cc1 | > 25000 nM | – |
| COc1ccc(C(C)(O)c2ncnc3ccccc23)cc1 (single isomer, unassigned; (-)) | – | inhibition (Tubulin (Homo sapiens) [12]): Active; growth inhibition (GI) (A549 [1]): Active |
| COc1cc(C(C)(O)c2ncnc3ccccc23)cc(OC)c1OC (configuration not stated) | > 25000 nM | – |
| COc1ccc(C(C)(O)c2nc(-c3ccc(Cl)cc3)nc3ccccc23)cc1 (configuration not stated) | 400 nM | – |
| COC(=O)Nc1nc2cc(C(=O)c3cccs3)ccc2[nH]1 | – | inhibition (Tubulin (Homo sapiens) [16]): Active |
| COc1ccc(C(C)(O)c2nc(N3CCOCC3)nc3ccccc23)cc1 (configuration not stated) | 170 nM | – |
| CSc1ccc(C(C)(O)c2ncnc3ccccc23)cc1 (configuration not stated) | 340 nM | – |
| CN(C)c1ccc(C(C)(O)c2ncnc3ccccc23)cc1 (configuration not stated) | 1300 nM | – |
| COc1ccc(C(C)(O)c2nc(-c3cccc(Cl)c3)nc3ccccc23)cc1 (configuration not stated) | 2100 nM | – |
| COc1ccc(C(=O)c2ncnc3ccccc23)cc1 | 20000 nM | – |
| COc1ccc(C(C)(O)c2nc(-c3ccsc3)nc3ccccc23)cc1 (configuration not stated) | 35 nM | – |
| COc1ccc(C(C)(O)c2ncnc3ccccc23)cc1OC (configuration not stated) | 21000 nM | – |
| COc1ccc(C(C)(O)c2nc(N3CCCCC3)nc3ccccc23)cc1 (configuration not stated) | 2700 nM | – |
| COc1ccc(C(C)(O)c2nc(SC)nc3ccccc23)cc1 (configuration not stated) | 67 nM | – |
| COc1ccc(C(C)(O)c2nc(N(C)C)nc3ccccc23)cc1 (configuration not stated) | 210 nM | – |
| COc1ccc(C(C)(O)c2nc(Nc3ccccc3)nc3ccccc23)cc1 (configuration not stated) | 2700 nM | – |
| CCC(O)(c1ccc(OC)cc1)c1ncnc2ccccc12 (configuration not stated) | 1800 nM | – |
| CC(O)(c1cccc(O)c1)c1ncnc2ccccc12 (configuration not stated) | > 25000 nM | – |
